According to publication PMC7316143 (Drug testing and analysis, 2018):

Columns and labels:
Format in all cases: biochemical
[1] = molecular target: T1, DAT (Rattus norvegicus, UniProt P23977); experiment: [3H]dopamine uptake inhibition at DAT in rat brain synaptosomes; details: for DAT/SERT ratio (uptake inhibition): (DAT IC50^-1)/(SERT IC50^-1), higher value indicates greater DAT selectivity; for IC50: [3H]Dopamine uptake at DAT IC50, rat caudate synaptosomes, 5 nM [3H]dopamine, mean ± SD, N=3
[2] = molecular target: T2, NET (Rattus norvegicus, UniProt Q63380); experiment: [3H]norepinephrine uptake inhibition at NET in rat brain synaptosomes; details: [3H]Norepinephrine uptake at NET IC50, rat brain synaptosomes, 10 nM [3H]norepinephrine; mean ± SD, N=3
[3] = molecular target: T3, SERT (Rattus norvegicus, UniProt P31652); experiment: [3H]5-HT uptake inhibition at SERT in rat brain synaptosomes
[4] = molecular target: T1, DAT; experiment: [3H]MPP+ release at DAT in rat brain synaptosomes; details: for DAT/SERT ratio (release): (DAT EC50^-1)/(SERT EC50^-1), higher value indicates greater DAT selectivity; for Emax: read-out: Release at DAT % Emax
[5] = molecular target: T2, NET; experiment: [3H]MPP+ release at NET in rat brain synaptosomes; details: for Emax: read-out: Release at NET % Emax
[6] = molecular target: T3, SERT; experiment: [3H]5-HT release at SERT in rat brain synaptosomes; details: for Emax: read-out: Release at SERT % Emax

T3 sequence (P31652 whole entry): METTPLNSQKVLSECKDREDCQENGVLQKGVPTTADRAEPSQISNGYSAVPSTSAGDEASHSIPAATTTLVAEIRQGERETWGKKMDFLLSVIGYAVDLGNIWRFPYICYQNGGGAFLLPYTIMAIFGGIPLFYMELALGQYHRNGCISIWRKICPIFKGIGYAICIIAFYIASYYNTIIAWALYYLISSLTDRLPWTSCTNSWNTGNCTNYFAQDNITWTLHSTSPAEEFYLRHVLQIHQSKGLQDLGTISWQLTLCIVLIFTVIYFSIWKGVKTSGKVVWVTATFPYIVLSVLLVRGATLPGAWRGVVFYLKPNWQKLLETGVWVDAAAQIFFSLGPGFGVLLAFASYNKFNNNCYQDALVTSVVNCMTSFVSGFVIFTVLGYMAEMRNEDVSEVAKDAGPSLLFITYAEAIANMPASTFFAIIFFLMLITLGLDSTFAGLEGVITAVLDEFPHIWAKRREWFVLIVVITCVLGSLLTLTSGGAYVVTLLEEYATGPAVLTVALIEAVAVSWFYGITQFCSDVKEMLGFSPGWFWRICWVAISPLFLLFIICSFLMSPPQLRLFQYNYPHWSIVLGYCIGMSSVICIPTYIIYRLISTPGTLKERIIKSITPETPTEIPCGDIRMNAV
T1 sequence (P23977 whole entry): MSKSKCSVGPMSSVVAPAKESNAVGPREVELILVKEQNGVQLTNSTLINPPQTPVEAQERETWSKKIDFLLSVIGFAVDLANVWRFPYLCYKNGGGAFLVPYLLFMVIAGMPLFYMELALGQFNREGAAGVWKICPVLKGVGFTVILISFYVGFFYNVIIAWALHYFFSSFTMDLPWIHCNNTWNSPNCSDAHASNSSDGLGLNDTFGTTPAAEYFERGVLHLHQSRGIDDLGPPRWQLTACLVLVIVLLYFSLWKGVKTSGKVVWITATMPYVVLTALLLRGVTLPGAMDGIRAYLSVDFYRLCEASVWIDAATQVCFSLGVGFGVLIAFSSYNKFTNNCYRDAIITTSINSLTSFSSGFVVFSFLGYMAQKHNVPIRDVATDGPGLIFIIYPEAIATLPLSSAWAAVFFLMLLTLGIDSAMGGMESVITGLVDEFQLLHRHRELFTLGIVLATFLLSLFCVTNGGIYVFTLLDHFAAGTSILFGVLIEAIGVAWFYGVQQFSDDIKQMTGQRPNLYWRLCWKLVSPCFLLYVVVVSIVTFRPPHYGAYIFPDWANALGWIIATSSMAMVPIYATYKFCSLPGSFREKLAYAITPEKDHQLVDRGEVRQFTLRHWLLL
T2 sequence (Q63380 1-617): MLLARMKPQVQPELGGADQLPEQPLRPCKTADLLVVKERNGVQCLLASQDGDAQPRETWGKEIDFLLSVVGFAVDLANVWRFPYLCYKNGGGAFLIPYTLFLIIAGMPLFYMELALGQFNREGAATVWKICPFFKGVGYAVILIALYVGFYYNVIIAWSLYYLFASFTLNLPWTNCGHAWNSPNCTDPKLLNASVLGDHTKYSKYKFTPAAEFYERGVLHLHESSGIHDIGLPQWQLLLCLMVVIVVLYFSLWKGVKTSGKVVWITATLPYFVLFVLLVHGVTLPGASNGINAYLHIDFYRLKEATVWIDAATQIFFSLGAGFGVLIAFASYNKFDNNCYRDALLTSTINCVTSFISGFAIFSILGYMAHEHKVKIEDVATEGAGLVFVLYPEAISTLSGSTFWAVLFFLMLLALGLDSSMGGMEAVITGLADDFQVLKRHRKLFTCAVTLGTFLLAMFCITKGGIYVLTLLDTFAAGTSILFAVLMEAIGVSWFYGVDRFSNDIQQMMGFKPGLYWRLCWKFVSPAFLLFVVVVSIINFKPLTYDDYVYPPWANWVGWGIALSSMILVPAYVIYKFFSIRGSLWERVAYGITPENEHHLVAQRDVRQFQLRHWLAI

SMILES	DAT/SERT ratio (uptake inhibition) [1]	IC50 [1] [nM]	IC50 [2] [nM]	IC50 [3] [nM]	EC50 [4] [nM]	DAT/SERT ratio (release) [4]	Emax [4] [%]	EC50 [5] [nM]	Emax [5] [%]	EC50 [6] [nM]	Emax [6] [%]	fold more potent than 2-MPM at DAT (uptake inhibition) ([1]; relative to 2-MPM)	fold more potent than 2-MPM and phenmetrazine at SERT (uptake inhibition) ([3]; relative to 2-MPM and phenmetrazine) [fold]	releaser activity at SERT (in words) ([6]; rat brain synaptosomes)
Cc1ccccc1C1OCCNC1C (stereo not shown) [2-MPM, 3-Methyl-2-(2-methylphenyl)morpholine]	0.6	6590 ± 1310	2600 ± 633	4010 ± 317	374 ± 38	4.7	104	102 ± 12	91	1760 ± 336	101	–	–	–
Cc1cccc(C2OCCNC2C)c1 (stereo not shown) [3-MPM, 3-Methyl-2-(3-methylphenyl)morpholine]	–	> 10000	5210 ± 1650	> 10000	1320 ± 218	4.1	110	509 ± 73	90	5380 ± 947	111	–	–	–
Cc1ccc(C2OCCNC2C)cc1 (stereo not shown) [4-MPM, 3-Methyl-2-(4-methylphenyl)morpholine]	0.2	1930 ± 207	1930 ± 392	408 ± 17	227 ± 30	0.4	99	62 ± 9	90	86 ± 12	88	about 3.5 fold	~10	–
CC1NCCOC1c1ccccc1 (stereo not shown) [Phenmetrazine, 3-methyl-2-phenylmorpholine, reference compound]	–	933 ± 57	1160 ± 197	3570 ± 836	70 ± 9	–	101	29 ± 4	95	> 10000	–	–	–	negligible activity
